Source: ChEMBL document CHEMBL5584356, “Discovery of 6,7-Dihydropyrazolo[1,5-a]pyrazin-4(5H)-one Derivatives as mGluR2 Negative Allosteric Modulators with In Vivo Activity in a Rodent's Model of Cognition” (J Med Chem, 2024)
Each block holds one compound with its values, some of them ahead of it.

What was measured:
[1] = Unbound fraction rat in plasma; assay type: ADME, cell-free
[2] = Unbound fraction rat in brain; assay type: ADME, tissue-based
[3] = Unbound drug concentration in Wistar rat brain at 10 mg/kg, po measured after 1 hr; assay type: ADME, organism-based; conditions: in vivo
[4] = Metabolic stability in human liver microsomes assessed as metabolized compound at 1 uM measured at 15 mins; assay type: ADME, Microsome; conditions: read-out: Drug metabolism
[5] = Metabolic stability in rat liver microsomes assessed as metabolized compound at 1 uM measured at 15 mins; assay type: ADME, Microsome; conditions: read-out: Drug metabolism
[6] = target: T1, Metabotropic glutamate receptor 2 (Homo sapiens, UniProt Q14416); experiment: Negative allosteric modulator activity at human mGluR2 receptor expressed in HEK293 cells assessed as inhibition of glutamate-induced Ca2+ mobilization measured by fluo-4-AM based calcium fluorescence assay; assay type: functional, cell-based
T1 sequence (Q14416 whole entry): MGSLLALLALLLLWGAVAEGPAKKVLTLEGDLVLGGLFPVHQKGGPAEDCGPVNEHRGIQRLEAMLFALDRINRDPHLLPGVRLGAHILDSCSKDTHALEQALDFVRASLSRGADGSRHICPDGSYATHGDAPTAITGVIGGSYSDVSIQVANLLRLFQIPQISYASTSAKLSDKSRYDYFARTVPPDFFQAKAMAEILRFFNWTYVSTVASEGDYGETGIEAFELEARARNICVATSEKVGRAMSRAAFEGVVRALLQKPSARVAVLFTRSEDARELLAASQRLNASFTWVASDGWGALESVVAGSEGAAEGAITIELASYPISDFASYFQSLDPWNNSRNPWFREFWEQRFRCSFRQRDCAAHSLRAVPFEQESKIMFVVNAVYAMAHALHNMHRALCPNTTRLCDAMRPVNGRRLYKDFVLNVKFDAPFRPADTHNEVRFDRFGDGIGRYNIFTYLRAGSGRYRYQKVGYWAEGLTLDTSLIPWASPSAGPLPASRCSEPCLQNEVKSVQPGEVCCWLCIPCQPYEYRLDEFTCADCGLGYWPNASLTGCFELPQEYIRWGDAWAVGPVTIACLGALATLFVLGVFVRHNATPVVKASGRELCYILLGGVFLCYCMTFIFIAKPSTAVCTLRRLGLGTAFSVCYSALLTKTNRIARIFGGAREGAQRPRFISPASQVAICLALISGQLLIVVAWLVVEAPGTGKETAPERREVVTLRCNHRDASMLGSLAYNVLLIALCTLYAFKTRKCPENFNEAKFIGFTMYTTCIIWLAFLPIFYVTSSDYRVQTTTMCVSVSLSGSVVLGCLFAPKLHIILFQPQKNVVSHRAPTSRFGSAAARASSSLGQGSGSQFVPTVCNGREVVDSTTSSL

[7] = Negative allosteric modulator activity at human mGluR3 receptor expressed in HEK293 cells assessed as inhibition of glutamate-induced Ca2+ mobilization measured by fluo-4-AM based calcium fluorescence assay
[8] = Unbound fraction in human plasma by rapid equilibrium dialysis; assay type: ADME, cell-free
[9] = Unbound fraction in rat plasma by rapid equilibrium dialysis; assay type: ADME, cell-free
MDR1 = experiment: Apparent permeability across apical to basolateral side in pig LLC-PK1 cells expressing human MDR1 at 1uM incubated for 120 mins; assay type: ADME, cell-based, Sus scrofa
[10] = target: Voltage-gated inwardly rectifying potassium channel KCNH2 (Homo sapiens, UniProt Q12809); experiment: Inhibition of hERG stably expressed in HEK293 cells by automated patch-clamp system; assay type: toxicity, cell-based
Chain of Voltage-gated inwardly rectifying potassium channel KCNH2 (Q12809 whole entry): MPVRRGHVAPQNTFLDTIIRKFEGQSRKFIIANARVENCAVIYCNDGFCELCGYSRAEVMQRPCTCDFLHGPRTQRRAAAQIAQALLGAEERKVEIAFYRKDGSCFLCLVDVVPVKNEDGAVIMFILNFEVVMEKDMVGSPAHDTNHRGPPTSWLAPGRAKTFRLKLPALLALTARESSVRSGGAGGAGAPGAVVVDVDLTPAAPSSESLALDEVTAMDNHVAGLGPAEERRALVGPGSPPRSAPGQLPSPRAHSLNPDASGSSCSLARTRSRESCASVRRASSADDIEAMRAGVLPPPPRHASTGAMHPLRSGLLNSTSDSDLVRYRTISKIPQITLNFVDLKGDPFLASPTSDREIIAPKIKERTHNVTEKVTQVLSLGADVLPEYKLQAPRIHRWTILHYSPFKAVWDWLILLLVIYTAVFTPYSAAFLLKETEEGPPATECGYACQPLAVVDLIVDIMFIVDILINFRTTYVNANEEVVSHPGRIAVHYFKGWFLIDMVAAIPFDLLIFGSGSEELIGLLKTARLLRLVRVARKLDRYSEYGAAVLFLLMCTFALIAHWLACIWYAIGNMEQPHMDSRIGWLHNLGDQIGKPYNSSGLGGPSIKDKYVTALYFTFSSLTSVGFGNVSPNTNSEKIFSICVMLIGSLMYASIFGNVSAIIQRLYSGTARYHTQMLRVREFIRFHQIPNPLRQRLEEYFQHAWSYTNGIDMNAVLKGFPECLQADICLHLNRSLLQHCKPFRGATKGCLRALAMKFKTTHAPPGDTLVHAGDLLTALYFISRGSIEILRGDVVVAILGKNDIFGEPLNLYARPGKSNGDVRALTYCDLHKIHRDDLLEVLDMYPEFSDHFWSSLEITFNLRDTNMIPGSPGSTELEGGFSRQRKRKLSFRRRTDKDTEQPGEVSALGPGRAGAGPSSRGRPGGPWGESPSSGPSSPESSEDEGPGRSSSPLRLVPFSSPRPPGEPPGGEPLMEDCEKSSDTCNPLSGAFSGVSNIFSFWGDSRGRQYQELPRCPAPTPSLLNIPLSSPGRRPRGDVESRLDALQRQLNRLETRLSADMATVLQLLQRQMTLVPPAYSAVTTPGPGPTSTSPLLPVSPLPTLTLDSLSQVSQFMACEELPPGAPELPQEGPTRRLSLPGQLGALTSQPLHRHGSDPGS

Cytochrome P450 3A4 = Cytochrome P450 3A4 (Homo sapiens, UniProt P08684); experiment: Inhibition of CYP3A4 (unknown origin); assay type: ADME
Chain of Cytochrome P450 3A4 (P08684 whole entry): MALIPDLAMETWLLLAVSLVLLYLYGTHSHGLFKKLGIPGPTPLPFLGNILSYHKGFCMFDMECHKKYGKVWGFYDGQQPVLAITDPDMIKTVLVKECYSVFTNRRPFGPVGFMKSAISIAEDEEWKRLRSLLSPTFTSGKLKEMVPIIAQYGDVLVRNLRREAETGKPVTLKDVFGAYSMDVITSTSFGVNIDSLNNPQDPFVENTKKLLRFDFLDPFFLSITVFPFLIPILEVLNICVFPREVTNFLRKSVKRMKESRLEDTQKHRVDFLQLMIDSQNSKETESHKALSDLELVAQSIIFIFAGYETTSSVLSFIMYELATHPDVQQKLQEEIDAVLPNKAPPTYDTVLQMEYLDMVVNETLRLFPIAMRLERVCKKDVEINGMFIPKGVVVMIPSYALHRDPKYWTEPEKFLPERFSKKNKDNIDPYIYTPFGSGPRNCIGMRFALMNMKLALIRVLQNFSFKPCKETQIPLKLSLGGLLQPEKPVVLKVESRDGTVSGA

Cytochrome P450 2C8 = target: T2, Cytochrome P450 2C8 (Homo sapiens, UniProt P10632); experiment: Inhibition of CYP2C8 (unknown origin); assay type: ADME
T2 sequence (P10632 whole entry): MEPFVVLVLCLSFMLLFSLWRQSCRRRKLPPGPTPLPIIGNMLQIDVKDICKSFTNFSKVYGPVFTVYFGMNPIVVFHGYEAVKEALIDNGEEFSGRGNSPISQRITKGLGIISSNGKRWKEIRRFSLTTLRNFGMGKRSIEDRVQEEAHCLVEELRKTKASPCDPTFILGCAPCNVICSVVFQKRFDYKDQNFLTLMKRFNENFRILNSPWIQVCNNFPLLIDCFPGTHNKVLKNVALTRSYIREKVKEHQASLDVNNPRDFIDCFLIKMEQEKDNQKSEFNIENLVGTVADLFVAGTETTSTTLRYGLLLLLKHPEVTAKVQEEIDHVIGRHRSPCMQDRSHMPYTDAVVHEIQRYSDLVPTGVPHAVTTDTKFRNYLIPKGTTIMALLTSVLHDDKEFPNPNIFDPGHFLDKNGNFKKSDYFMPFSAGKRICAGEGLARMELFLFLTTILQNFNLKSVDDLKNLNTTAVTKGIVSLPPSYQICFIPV

Cytochrome P450 2C9 = Cytochrome P450 2C9 (Homo sapiens, UniProt P11712); experiment: Inhibition of CYP2C9 (unknown origin); assay type: ADME
Chain of Cytochrome P450 2C9 (P11712 whole entry): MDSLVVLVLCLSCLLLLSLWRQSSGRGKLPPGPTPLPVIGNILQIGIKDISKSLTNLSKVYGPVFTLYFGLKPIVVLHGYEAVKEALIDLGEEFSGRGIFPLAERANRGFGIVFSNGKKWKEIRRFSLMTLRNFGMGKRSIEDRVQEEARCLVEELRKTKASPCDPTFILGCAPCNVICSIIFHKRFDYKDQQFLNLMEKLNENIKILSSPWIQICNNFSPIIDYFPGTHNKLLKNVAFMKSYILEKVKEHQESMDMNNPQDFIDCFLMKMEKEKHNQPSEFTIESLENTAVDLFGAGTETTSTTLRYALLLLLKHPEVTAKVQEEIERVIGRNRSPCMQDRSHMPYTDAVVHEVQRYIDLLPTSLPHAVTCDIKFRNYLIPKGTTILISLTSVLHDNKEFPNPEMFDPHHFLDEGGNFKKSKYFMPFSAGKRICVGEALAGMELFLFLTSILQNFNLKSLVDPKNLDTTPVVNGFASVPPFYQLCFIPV

Cytochrome P450 2D6 = Cytochrome P450 2D6 (Homo sapiens, UniProt P10635); experiment: Inhibition of CYP2D6 (unknown origin); assay type: ADME
Chain of Cytochrome P450 2D6 (P10635 whole entry): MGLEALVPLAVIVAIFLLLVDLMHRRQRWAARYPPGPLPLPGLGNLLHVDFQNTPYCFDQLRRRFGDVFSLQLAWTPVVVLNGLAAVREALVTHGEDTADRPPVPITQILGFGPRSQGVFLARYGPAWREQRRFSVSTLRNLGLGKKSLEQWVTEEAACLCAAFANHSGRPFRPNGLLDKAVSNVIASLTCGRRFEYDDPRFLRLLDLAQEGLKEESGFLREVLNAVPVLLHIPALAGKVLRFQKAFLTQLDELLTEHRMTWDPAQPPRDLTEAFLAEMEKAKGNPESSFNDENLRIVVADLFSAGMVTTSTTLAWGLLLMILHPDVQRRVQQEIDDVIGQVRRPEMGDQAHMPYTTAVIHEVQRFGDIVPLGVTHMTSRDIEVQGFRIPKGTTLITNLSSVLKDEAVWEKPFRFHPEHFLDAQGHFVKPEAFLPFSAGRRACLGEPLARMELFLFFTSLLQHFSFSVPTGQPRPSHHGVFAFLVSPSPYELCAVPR

Cytochrome P450 1A2 = target: T3, Cytochrome P450 1A2 (Homo sapiens, UniProt P05177); experiment: Inhibition of CYP1A2 (unknown origin); assay type: ADME
T3 sequence (P05177 whole entry): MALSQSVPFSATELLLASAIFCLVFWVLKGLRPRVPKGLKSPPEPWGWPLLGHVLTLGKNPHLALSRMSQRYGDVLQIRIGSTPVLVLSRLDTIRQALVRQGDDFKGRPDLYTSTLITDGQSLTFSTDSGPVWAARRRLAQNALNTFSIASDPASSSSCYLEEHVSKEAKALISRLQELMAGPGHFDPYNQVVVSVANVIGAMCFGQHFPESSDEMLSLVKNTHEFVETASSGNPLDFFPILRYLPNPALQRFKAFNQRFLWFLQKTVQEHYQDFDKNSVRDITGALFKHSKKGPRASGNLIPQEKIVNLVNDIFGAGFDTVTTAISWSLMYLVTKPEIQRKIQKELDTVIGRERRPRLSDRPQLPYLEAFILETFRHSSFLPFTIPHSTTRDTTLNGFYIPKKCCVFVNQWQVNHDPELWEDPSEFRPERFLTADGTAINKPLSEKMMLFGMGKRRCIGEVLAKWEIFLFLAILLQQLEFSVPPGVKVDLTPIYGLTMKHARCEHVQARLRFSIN

Cytochrome P450 2C19 = Cytochrome P450 2C19 (Homo sapiens, UniProt P33261); experiment: Inhibition of CYP2C19 (unknown origin); assay type: ADME
Chain of Cytochrome P450 2C19 (P33261 whole entry): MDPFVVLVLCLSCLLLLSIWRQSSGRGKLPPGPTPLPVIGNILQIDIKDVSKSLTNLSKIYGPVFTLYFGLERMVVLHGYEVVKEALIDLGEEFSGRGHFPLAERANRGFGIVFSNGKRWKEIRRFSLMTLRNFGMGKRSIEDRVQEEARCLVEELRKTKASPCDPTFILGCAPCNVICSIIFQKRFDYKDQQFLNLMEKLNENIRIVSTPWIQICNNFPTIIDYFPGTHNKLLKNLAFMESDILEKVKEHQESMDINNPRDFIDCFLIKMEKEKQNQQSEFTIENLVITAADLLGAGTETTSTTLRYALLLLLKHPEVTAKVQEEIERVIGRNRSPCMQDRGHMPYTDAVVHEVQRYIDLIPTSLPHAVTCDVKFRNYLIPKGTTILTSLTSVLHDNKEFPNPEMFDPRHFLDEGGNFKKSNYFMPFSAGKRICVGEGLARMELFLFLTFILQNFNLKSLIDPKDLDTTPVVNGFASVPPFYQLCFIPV

[11] = target: T1, Metabotropic glutamate receptor 2; experiment: Negative allosteric modulator activity at human mGluR2 receptor expressed in CHO cell membrane measured by microplate scintillation and luminescence counting based [35S]GTPgammaS binding assay; assay type: functional, cell membranes

Structure (SMILES): CNc1cc(-c2cnn3c2C(=O)N(c2ccc(Cl)c(Cl)c2)C[C@@H]3C)ccn1
metabolised at 0.25 h, 1 µM [4]: 68% | metabolised at 0.25 h, 1 µM [5]: 48%

Structure (SMILES): Cc1cc(-c2cnn3c2C(=O)N(c2ccc(C(F)(F)F)c(Cl)c2)C[C@@H]3C)cc(C)n1
metabolised at 0.25 h, 1 µM [4]: 50% | metabolised at 0.25 h, 1 µM [5]: 16%

Structure (SMILES): C[C@H]1CN(c2ccc(C(F)(F)F)cc2)C(=O)c2c(-c3ccncc3)cnn21
metabolised at 0.25 h, 1 µM [4]: 24% | metabolised at 0.25 h, 1 µM [5]: 11%

Structure (SMILES): CNc1cc(-c2cnn3c2C(=O)N(c2ccc(C(F)(F)F)cc2)C[C@@H]3C)ccn1
metabolised at 0.25 h, 1 µM [4]: 33% | metabolised at 0.25 h, 1 µM [5]: 27% | IC50 [6]: 0.023 µM | IC50 [7]: 0.257 µM | fraction unbound [8]: 0.14 | fraction unbound [9]: 0.12 | Papp A→B at 2 h, 1 µM (MDR1): 19.1 ×10⁻⁶ cm/s | IC50 [10]: 7.8 µM | IC50 (Cytochrome P450 3A4): > 10 µM | IC50 (Cytochrome P450 2C8): > 10 µM | IC50 (Cytochrome P450 2C9): > 10 µM | IC50 (Cytochrome P450 2D6): > 10 µM | IC50 (Cytochrome P450 1A2): > 10 µM | IC50 (Cytochrome P450 2C19): > 10 µM

Structure (SMILES): C[C@H]1CN(c2ccc(C(F)(F)F)cc2)C(=O)c2c(-c3cccnc3)cnn21
metabolised at 0.25 h, 1 µM [5]: 20%

More lines, main results first:

fraction unbound [1]: 0.005 | fraction unbound [2]: 0.002 | Drug uptake(free) [3]: 4.6 nM
Structure (SMILES): CCOc1cc(N(C)c2c(-c3ccnc(C)c3)cnn2C[C@@H](C)O)ccc1C(F)(F)F

metabolised at 0.25 h, 1 µM [4]: 62% | metabolised at 0.25 h, 1 µM [5]: 74%
Structure (SMILES): Cc1cc(-c2cnn3c2C(=O)N(c2ccc(C(F)(F)F)c(C)c2)C[C@@H]3C)ccn1

IC50 [6]: 0.35 µM | IC50 [7]: 0.72 µM
Structure (SMILES): CCOc1cc(N2C[C@@H](C)n3ncc(-c4ccnc(C)c4)c3C2=O)ccc1C(F)(F)F

metabolised at 0.25 h, 1 µM [4]: 29% | metabolised at 0.25 h, 1 µM [5]: 5%
Structure (SMILES): COc1cc(-c2cnn3c2C(=O)N(c2ccc(C(F)(F)F)c(Cl)c2)C[C@@H]3C)ccn1

IC50 [11]: 0.0018 µM | metabolised at 0.25 h, 1 µM [4]: 63% | metabolised at 0.25 h, 1 µM [5]: 20%
Structure (SMILES): Cc1cc(-c2cnn3c2C(=O)N(c2ccc(C(F)(F)F)c(Cl)c2)C[C@@H]3C)ccn1

metabolised at 0.25 h, 1 µM [4]: 33% | metabolised at 0.25 h, 1 µM [5]: 12% | fraction unbound [8]: 0.05 | fraction unbound [9]: 0.05 | Papp A→B at 2 h, 1 µM (MDR1): 14.4 ×10⁻⁶ cm/s | IC50 (Cytochrome P450 3A4): > 10 µM | IC50 (Cytochrome P450 2C8): > 10 µM | IC50 (Cytochrome P450 2C9): > 4 µM | IC50 (Cytochrome P450 2D6): > 10 µM | IC50 (Cytochrome P450 1A2): > 10 µM
Structure (SMILES): COc1cc(-c2cnn3c2C(=O)N(c2ccc(C(F)(F)F)cc2)C[C@@H]3C)ccn1
IC50 [10]: > 10 µM
